Experimental findings from ChEMBL document CHEMBL1137135 (Bioorg Med Chem Lett, 2004) are described below.

The nature of this experiment: In vitro inhibitory activity against Factor Xa.

SMILES strings stand for the structures.

For orientation: IC50 means the concentration that gives 50% inhibition. Low values mean greater potency in that assay, high ones weaker potency in that assay. For the molecule `NS(=O)(=O)c1ccccc1-c1ccc(C(=O)NCCNC(=O)c2cc3cc(Cl)ccc3[nH]2)cc1`, the IC50 came to 760 nM.
The molecule `NS(=O)(=O)c1ccccc1-c1ccc(C(=O)NCCNS(=O)(=O)c2ccc3cc(Br)ccc3c2)cc1` registered an IC50 of 9300 nM.
As for `NS(=O)(=O)c1ccccc1-c1ccc(C(=O)NCCNS(=O)(=O)c2cc3cc(Cl)ccc3[nH]2)cc1`, the figure is 1900 nM.
As for `NS(=O)(=O)c1ccccc1-c1ccc(C(=O)NCCC(=O)Nc2ccc(Cl)cc2)cc1`, inhibition was half-maximal at 17 nM (IC50).
For `COC(=O)C(CC(=O)Nc1ccc(Br)cn1)NC(=O)c1ccc(-c2ccccc2S(N)(=O)=O)cc1` (centres undefined), half-maximal inhibition (IC50) was put at 24.7 nM.
As for `CCC(=O)NC(CC(=O)Nc1ccc(Br)cn1)C(=O)Nc1ccc(-c2ccccc2S(N)(=O)=O)cc1` (centres undefined), the figure is 36.5 nM; as for `NS(=O)(=O)c1ccccc1-c1ccc(C(=O)NC(CC(=O)Nc2ccc(Br)cn2)C(=O)N2CCCC2)cc1` (centres undefined), 14.5 nM.
Turning to `CNC(=O)C(CC(=O)Nc1ccc(Br)cn1)NC(=O)c1ccc(-c2ccccc2S(N)(=O)=O)cc1` (centres undefined), the concentration for half-maximal inhibition (IC50) was determined as 17.4 nM.
Molecule `NC(CNC(=O)c1ccc(-c2ccccc2S(N)(=O)=O)cc1)C(=O)Nc1ccc(Br)cn1` (centres undefined) showed an IC50 of 1650 nM.
For `NS(=O)(=O)c1ccccc1-c1ccc(C(=O)NC(CC(=O)Nc2ccc(Br)cn2)C(=O)N2CCOCC2)cc1` (centres undefined), half-maximal inhibition (IC50) required 22.9 nM.
Regarding `CCOC(=O)CNC(=O)C(CC(=O)Nc1ccc(Br)cn1)NC(=O)c1ccc(-c2ccccc2S(N)(=O)=O)cc1` (centres undefined), the IC50 worked out at 3.3 nM.
As for `NS(=O)(=O)c1ccccc1-c1ccc(C(=O)NC(CC(=O)Nc2ccc(Br)cn2)C(=O)Nc2ccccc2)cc1` (centres undefined), the figure is 26.5 nM; as for `NS(=O)(=O)c1ccccc1-c1ccc(C(=O)NC(CC(=O)Nc2ccc(Br)cn2)C(=O)N2CCNCC2)cc1` (centres undefined), 90.9 nM; as for `CC(=O)NC(CC(=O)Nc1ccc(Br)cn1)C(=O)Nc1ccc(-c2ccccc2S(N)(=O)=O)cc1` (centres undefined), 182 nM.
In the case of `CN1CCN(C(=O)C(CC(=O)Nc2ccc(Br)cn2)NC(=O)c2ccc(-c3ccccc3S(N)(=O)=O)cc2)CC1` (centres undefined) it was 26.5 nM; in that of `NS(=O)(=O)c1ccccc1-c1ccc(C(=O)NCCNS(=O)(=O)c2ccc(Cl)cc2)cc1`, over 10000 nM.
In the case of `NC(CC(=O)Nc1ccc(Br)cn1)C(=O)Nc1ccc(-c2ccccc2S(N)(=O)=O)cc1` (centres undefined) it was 145 nM; in that of `CS(=O)(=O)NC(CNC(=O)c1ccc(-c2ccccc2S(N)(=O)=O)cc1)C(=O)Nc1ccc(Br)cn1` (centres undefined), 1250 nM.
Molecule `NS(=O)(=O)c1ccccc1-c1ccc(C(=O)NC(CC(=O)Nc2ccc(Br)cn2)C(=O)NC2CCCC2)cc1` (centres undefined) displayed an IC50 of 15.9 nM.
`NS(=O)(=O)c1ccccc1-c1ccc(C(=O)NCCC(=O)Nc2ccc(Br)cc2)cc1` registered a half-maximal inhibitory concentration (IC50) of 29 nM.
Consider `NS(=O)(=O)c1ccccc1-c1ccc(C(=O)NC(CC(=O)Nc2ccc(Br)cn2)C(=O)N2CCS(=O)(=O)CC2)cc1` (centres undefined), for which 40.1 nM corresponded to half-maximal inhibition (IC50).
In the case of `CC(=O)NC(CNC(=O)c1ccc(-c2ccccc2S(N)(=O)=O)cc1)C(=O)Nc1ccc(Br)cn1` (centres undefined) it was 805 nM; in that of `CNCCNC(=O)C(CC(=O)Nc1ccc(Br)cn1)NC(=O)c1ccc(-c2ccccc2S(N)(=O)=O)cc1` (centres undefined), 43.4 nM.
In the case of `NS(=O)(=O)c1ccccc1-c1ccc(C(=O)NC(CC(=O)Nc2ccc(Br)cn2)C(=O)N2CCCCCC2)cc1` (centres undefined) it was 4.98 nM.
As for `CCCCOC(=O)NC(CNC(=O)c1ccc(-c2ccccc2S(N)(=O)=O)cc1)C(=O)Nc1ccc(Br)cn1` (centres undefined), the figure is 1250 nM.
Consider `CN(C)CCNC(=O)C(CC(=O)Nc1ccc(Br)cn1)NC(=O)c1ccc(-c2ccccc2S(N)(=O)=O)cc1` (centres undefined), for which the IC50 came to 49.7 nM.
In turn, `CN(C)CCN(C)C(=O)C(CC(=O)Nc1ccc(Br)cn1)NC(=O)c1ccc(-c2ccccc2S(N)(=O)=O)cc1` (centres undefined) came in with an IC50 of 45.5 nM.
In the case of `NS(=O)(=O)c1ccccc1-c1ccc(C(=O)NCCNS(=O)(=O)c2cc3ccc(Cl)cc3s2)cc1` it was 1090 nM; in that of `NS(=O)(=O)c1ccccc1-c1ccc(C(=O)NCC(NC(=O)Nc2ccccc2)C(=O)Nc2ccc(Br)cn2)cc1` (centres undefined), 8500 nM.
